Laboratory results taken from ChEMBL document CHEMBL1275509, “Plasmid-encoded carbapenem-hydrolyzing beta-lactamase OXA-48 in an imipenem-susceptible Klebsiella pneumoniae strain from Belgium” (2008).
≈ marks a conversion by molar mass, not a printed value.

Columns and labels:
Escherichia coli [1] = test: Antibacterial activity against Escherichia coli J53 by Etest method; type: functional
Escherichia coli [2] = test: Antibacterial activity against Escherichia coli J53 by Etest method in presence of beta-lactamase inhibitor clavulanic acid; type: functional
Klebsiella pneumoniae [3] = test: Antibacterial activity against Klebsiella pneumoniae 11978 harboring plasmid pA-1carrying beta-lactamase OXA-48 by Etest method; type: functional
Escherichia coli [4] = test: Antibacterial activity against Escherichia coli J53 harboring plasmid-encoded beta-lactamase OXA-48 by Etest method in presence of beta-lactamase inhibitor clavulanic acid; type: functional
Klebsiella pneumoniae [5] = test: Antibacterial activity against Klebsiella pneumoniae 11978 harboring plasmid pA-1carrying beta-lactamase OXA-48 by Etest method in presence of beta-lactamase inhibitor clavulanic acid; type: functional
Escherichia coli [6] = test: Antibacterial activity against Escherichia coli J53 harboring plasmid-encoded beta-lactamase OXA-48 by Etest method; type: functional
Escherichia coli [7] = test: Antibacterial activity against Escherichia coli J53 harboring plasmid pA-1carrying beta-lactamase OXA-48 by Etest method; type: functional
Klebsiella pneumoniae [8] = test: Antibacterial activity against human urinary Klebsiella pneumoniae UCL-1 harboring plasmid-encoded beta-lactamase OXA-48 by Etest method; type: functional; details: UCL-1, Urine
Klebsiella pneumoniae [9] = test: Antibacterial activity against human urinary Klebsiella pneumoniae UCL-1 harboring plasmid-encoded beta-lactamase OXA-48 by Etest method in presence of beta-lactamase inhibitor clavulanic acid; type: functional; details: UCL-1, Urine
Escherichia coli [10] = test: Antibacterial activity against Escherichia coli J53 harboring plasmid pA-1carrying beta-lactamase OXA-48 by Etest method in presence of beta-lactamase inhibitor clavulanic acid; type: functional
[11] = target: Beta-lactamase OXA-48 (Klebsiella pneumoniae) (UniProt Q6XEC0); test: Compound hydrolyzing activity of Klebsiella pneumoniae beta-lactamase OXA-48; details: UCL-1
Chain of Beta-lactamase OXA-48 (Klebsiella pneumoniae) (Q6XEC0 whole entry, the tested form may be a part): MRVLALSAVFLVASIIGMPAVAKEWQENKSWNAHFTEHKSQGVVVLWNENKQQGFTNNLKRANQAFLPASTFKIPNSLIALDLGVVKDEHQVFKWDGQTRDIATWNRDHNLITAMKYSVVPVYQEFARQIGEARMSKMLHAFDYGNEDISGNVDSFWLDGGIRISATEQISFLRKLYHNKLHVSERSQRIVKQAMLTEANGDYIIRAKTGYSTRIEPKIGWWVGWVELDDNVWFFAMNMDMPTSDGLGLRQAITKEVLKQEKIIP

Klebsiella pneumoniae [12] = test: Antibacterial activity against amoxicillin and amoxicillin-clavulanate resistant Klebsiella pneumoniae UCL-1 assessed as zone of inhibition by disk diffusion method; type: functional
Klebsiella pneumoniae [13] = test: Antibacterial activity against Klebsiella pneumoniae 11978 harboring plasmid pA-1carrying beta-lactamase OXA-48 by Etest method in presence of beta-lactamase inhibitor Tazobactam; type: functional
Escherichia coli [14] = test: Antibacterial activity against Escherichia coli J53 by Etest method in presence of beta-lactamase inhibitor Tazobactam; type: functional
Klebsiella pneumoniae [15] = test: Antibacterial activity against human urinary Klebsiella pneumoniae UCL-1 harboring plasmid-encoded beta-lactamase OXA-48 by Etest method in presence of beta-lactamase inhibitor Tazobactam; type: functional; details: UCL-1, Urine
Escherichia coli [16] = test: Antibacterial activity against Escherichia coli J53 harboring plasmid pA-1carrying beta-lactamase OXA-48 by Etest method in presence of beta-lactamase inhibitor Tazobactam; type: functional
Escherichia coli [17] = test: Antibacterial activity against Escherichia coli J53 harboring plasmid-encoded beta-lactamase OXA-48 by Etest method in presence of beta-lactamase inhibitor Tazobactam; type: functional

SMILES | MIC (Escherichia coli [1]) [µg/mL] | MIC (Escherichia coli [2]) [µg/mL] | MIC (Klebsiella pneumoniae [3]) [µg/mL] | MIC (Escherichia coli [4]) [µg/mL] | MIC (Klebsiella pneumoniae [5]) [µg/mL] | MIC (Escherichia coli [6]) [µg/mL] | MIC (Escherichia coli [7]) [µg/mL] | MIC (Klebsiella pneumoniae [8]) [µg/mL] | MIC (Klebsiella pneumoniae [9]) [µg/mL] | MIC (Escherichia coli [10]) [µg/mL] | Activity [11] [µmol/min/mg] | inhibition zone (IZ) (Klebsiella pneumoniae [12]) [mm] | MIC (Klebsiella pneumoniae [13]) [µg/mL] | MIC (Escherichia coli [14]) [µg/mL] | MIC (Klebsiella pneumoniae [15]) [µg/mL] | MIC (Escherichia coli [16]) [µg/mL] | MIC (Escherichia coli [17]) [µg/mL]
CC1(C)S[C@@H]2[C@H](NC(=O)[C@H](N)c3ccc(O)cc3)C(=O)N2[C@H]1C(=O)O [AMOXICILLIN] | 4 (≈ 10.9 µM) | 4 | > 256 | > 256 | > 256 | > 256 | > 256 | > 256 | > 256 | > 256 | – | – | – | – | – | – | –
C[C@@H](O)[C@H]1C(=O)N2C(C(=O)O)=C(S[C@@H]3CN[C@H](C(=O)Nc4cccc(C(=O)O)c4)C3)[C@H](C)[C@H]12 [ERTAPENEM] | 0.03 (≈ 0.0631 µM) | – | > 32 | – | – | 2 (≈ 4.21 µM) | 2 (≈ 4.21 µM) | 4 (≈ 8.41 µM) | – | – | 0.04 | 18 | – | – | – | – | –
CC(C)(O/N=C(\C(=O)N[C@@H]1C(=O)N2C(C(=O)[O-])=C(C[n+]3ccccc3)CS[C@H]12)c1csc(N)n1)C(=O)O [CEFTAZIDIME] | 0.06 (≈ 0.11 µM) | – | > 256 | – | – | 0.75 (≈ 1.37 µM) | 0.75 (≈ 1.37 µM) | 1 (≈ 1.83 µM) | – | – | – | – | – | – | – | – | –
CO[C@@]1(NC(=O)Cc2cccs2)C(=O)N2C(C(=O)O)=C(COC(N)=O)CS[C@@H]21 [CEFOXITIN] | 2 (≈ 4.68 µM) | – | 128 (≈ 299 µM) | – | – | 2 (≈ 4.68 µM) | 2 (≈ 4.68 µM) | 2 (≈ 4.68 µM) | – | – | – | – | – | – | – | – | –
CCN1CCN(C(=O)N[C@@H](C(=O)N[C@@H]2C(=O)N3[C@@H]2SC(C)(C)[C@@H]3C(=O)O)c2ccccc2)C(=O)C1=O [PIPERACILLIN] | 1 (≈ 1.93 µM) | – | > 256 | – | – | 128 (≈ 247 µM) | 128 (≈ 247 µM) | 256 (≈ 495 µM) | – | – | – | – | > 256 | 1 | 256 | 128 | 128
C[C@H]1[C@H](NC(=O)/C(=N\OC(C)(C)C(=O)O)c2csc(N)n2)C(=O)N1S(=O)(=O)O [AZTREONAM] | – | – | > 256 | – | – | 0.064 (≈ 0.147 µM) | 0.064 (≈ 0.147 µM) | 0.064 (≈ 0.147 µM) | – | – | – | – | – | – | – | – | –
CC1(C)S[C@@H]2[C@H](NC(=O)[C@H](C(=O)O)c3ccsc3)C(=O)N2[C@H]1C(=O)O [TICARCILLIN] | 2 (≈ 5.2 µM) | 2 | > 256 | > 256 | > 256 | > 256 | > 256 | > 256 | > 256 | > 256 | – | – | – | – | – | – | –
CO/N=C(\C(=O)N[C@@H]1C(=O)N2C(C(=O)O)=C(COC(C)=O)CS[C@H]12)c1csc(N)n1 [CEFOTAXIME] | 0.06 (≈ 0.132 µM) | – | 64 (≈ 141 µM) | – | – | 0.38 (≈ 0.834 µM) | 0.38 (≈ 0.834 µM) | 0.125 (≈ 0.274 µM) | – | – | – | – | – | – | – | – | –
C[C@@H](O)[C@H]1C(=O)N2C(C(=O)O)=C(SCCNC=N)C[C@H]12 [IMIPENEM ANHYDROUS] | – | – | 64 (≈ 214 µM) | – | – | 0.75 (≈ 2.51 µM) | 1 (≈ 3.34 µM) | 0.75 (≈ 2.51 µM) | – | – | 1.6 | 22 | – | – | – | – | –
CO/N=C(\C(=O)N[C@@H]1C(=O)N2C(C(=O)[O-])=C(C[N+]3(C)CCCC3)CS[C@H]12)c1csc(N)n1 [CEFEPIME] | 0.03 (≈ 0.0624 µM) | – | 32 (≈ 66.6 µM) | – | – | 0.125 (≈ 0.26 µM) | 0.125 (≈ 0.26 µM) | 0.125 (≈ 0.26 µM) | – | – | – | – | – | – | – | – | –
CN(C)c1cc(NC(=O)CNC(C)(C)C)c(O)c2c1C[C@H]1C[C@H]3[C@H](N(C)C)C(O)=C(C(N)=O)C(=O)[C@@]3(O)C(O)=C1C2=O [TIGECYCLINE] | 0.5 (≈ 0.854 µM) | – | 1.5 (≈ 2.56 µM) | – | – | 0.5 (≈ 0.854 µM) | 0.5 (≈ 0.854 µM) | 2 (≈ 3.41 µM) | – | – | – | – | – | – | – | – | –
CC(=O)OCC1=C(C(=O)O)N2C(=O)[C@@H](NC(=O)Cc3cccs3)[C@H]2SC1 [CEPHALOTHIN] | 4 (≈ 10.1 µM) | – | > 256 | – | – | 8 (≈ 20.2 µM) | 8 (≈ 20.2 µM) | 16 (≈ 40.4 µM) | – | – | – | – | – | – | – | – | –
C[C@@H](O)[C@H]1C(=O)N2C(C(=O)O)=C(S[C@@H]3CN[C@H](C(=O)N(C)C)C3)[C@H](C)[C@H]12 [MEROPENEM] | 0.03 (≈ 0.0782 µM) | – | 64 (≈ 167 µM) | – | – | 0.5 (≈ 1.3 µM) | 0.5 (≈ 1.3 µM) | 0.5 (≈ 1.3 µM) | – | – | 0.05 | 23 | – | – | – | – | –
